Assays:
[1] = test system: Ba/F3-WT (wild type) cells; assay: Ba/F3 Proliferation Assay, Ba/F3-WT (wild type) cells with mIL-3 (Resazurin); type: cell-based; settings: Ba/F3-WT cells +mIL-3, 48-hour incubation
Ba/F3-Syk cells = molecular target: T1, Ba/F3-Syk cells (Homo sapiens, UniProt P43405); assay: Ba/F3 Proliferation Assay, Ba/F3-Syk cells (Resazurin); type: cell-based; settings: 48-hour incubation
T1 construct: fused on or other part: Possible but unprinted fusion partner: TEL (ETV6), the usual partner for Ba/F3 lines transformed by Syk; Nothing on a partner is printed

| SMILES | EC50 ([1]; Mus musculus, BaF3, 48 h) [µM] | EC50 (Ba/F3-Syk cells) [µM] | EC50 [1] [µM] |
| --- | --- | --- | --- |
| CC(C)n1ccc(-c2cc(O[C@H](C)[C@@H]3CNCCO3)c3nccnc3c2)c1 [Compound 8.13] | – | 0.0073 | 0.371 |
| CCn1ccc(-c2cc(OC[C@@H]3CNCC4(CCC4)O3)c3nccnc3c2)c1 [Compound 8.16, 7-(1-ethyl-1H-pyrrol-3-yl)-5-{[(6S)-5-oxa-8-azaspiro[3.5]nonan-6-yl]methoxy}quinoxaline] | 0.822 | 0.0094 | – |
| FC(F)Cn1ccc(-c2cc(OC[C@@H]3CNCCCO3)c3nccnc3c2)c1 [Compound 8.20, 7-[1-(2,2-difluoroethyl)-1H-pyrrol-3-yl]-5-{[(2S)-1,4-oxazepan-2-yl]methoxy}quinoxaline] | 1.86 | 0.0276 | – |
| CCn1ccc(-c2cc(OC[C@@H]3CNCC(C)(C)O3)c3nccnc3c2)c1 [Compound 8.21, 5-{[(2S)-6,6-dimethylmorpholin-2-yl]methoxy}-7-(1-ethyl-1H-pyrrol-3-yl)quinoxaline] | 0.951 | 0.01 | – |
| CC[C@@H](C)n1ccc(-c2cc(OC[C@@H]3CNCCO3)c3nccnc3c2)c1 [Compound 8.24, 7-{1-[(2R)-butan-2-yl]-1H-pyrrol-3-yl}-5-{[(2S)-morpholin-2-yl]methoxy}quinoxaline] | > 1 | 0.0129 | – |
| CC[C@H](C)n1ccc(-c2cc(OC[C@@H]3CNCCO3)c3nccnc3c2)c1 [Compound 8.25, 7-{1-[(2S)-butan-2-yl]-1H-pyrrol-3-yl}-5-{[(2S)-morpholin-2-yl]methoxy}quinoxaline] | > 1 | 0.0115 | – |
| Cn1cc(-c2cc3ncccc3c(O[C@H]([C@@H]3CNCCO3)C(F)(F)F)n2)cn1 [Compound 10.2, 7-(1-methyl-1H-pyrazol-4-yl)-5-[(1R)-2,2,2-trifluoro-1-[(2S)-morpholin-2-yl]ethoxy]-1,6-naphthyridine] | > 10 | 0.839 | – |
| CC1(C)CNC[C@@H](COc2nc(-c3cnn4c3CCCC4)cc3ncccc23)O1 [Compound 10.3, 5-{[(2S)-6,6-dimethylmorpholin-2-yl]methoxy}-7-(4H,5H,6H,7H-pyrazolo[1,5-a]pyridin-3-yl}-1,6-naphthyridine] | > 10 | 0.365 | – |
| c1cnc2cc(-c3cnn4c3CCCC4)nc(OC[C@@H]3CNCCO3)c2c1 [Compound 10.4, 5-{[(2S)-morpholin-2-yl]methoxy}-7-{4H,5H,6H,7H-pyrazolo[1,5-a]pyridin-3-yl}-1,6-naphthyridine] | 8.09 | 0.663 | – |
| Cn1cc(-c2cc3ncccc3c(O[C@@H]([C@@H]3CNCCO3)C(F)(F)F)n2)cn1 [Compound 10.5, 7-(1-methyl-1H-pyrazol-4-yl)-5-[(1S)-2,2,2-trifluoro-1-[(2S)-morpholin-2-yl]ethoxy]-1,6-naphthyridine] | 3.28 | 0.798 | – |
| CC(C)n1cc(-c2cc3ncccc3c(OC[C@@]3(C)CNCCO3)n2)cn1 [Compound 10.8, 5-{[(2R)-2-methylmorpholin-2-yl]methoxy}-7-[1-(propan-2-yl)-1H-pyrazol-4-yl]-1,6-naphthyridine] | 1.9 | 0.0811 | – |
| Cn1ccc(-c2cc3ncccc3c(OC[C@@]3(C)CNCCO3)n2)c1 [Compound 10.9, 7-(1-methyl-1H-pyrrol-3-yl)-5-{[(2R)-2-methylmorpholin-2-yl]methoxy}-1,6-naphthyridine] | 7.04 | 0.148 | – |
| Cn1cc(-c2cc3ncccc3c(OC[C@@H]3CNCC(C)(C)CO3)n2)cn1 [Compound 10.10, 5-{[(2S)-6,6-dimethyl-1,4-oxazepan-2-yl]methoxy}-7-(1-methyl-1H-pyrazol-4-yl)-1,6-naphthyridine] | 3.68 | 0.271 | – |
| CC1(C)CNC[C@@H](COc2nc(-c3cnn(C(C)(C)C)c3)cc3ncccc23)OC1 [Compound 10.11, 7-(1-tert-butyl-1H-pyrazol-4-yl)-5-{[(2S)-6,6-dimethyl-1,4-oxazepan-2-yl]methoxy}-1,6-naphthyridine] | 4.14 | 0.0808 | – |
| CC(C)n1cc(-c2cc3ncccc3c(OC[C@@H]3CNCC(C)(C)CO3)n2)cn1 [Compound 10.12, 5-{[(2S)-6,6-dimethyl-1,4-oxazepan-2-yl]methoxy}-7-[1-(propan-2-yl)-1H-pyrazol-4-yl]-1,6-naphthyridine] | 1.92 | 0.0861 | – |
| CC[C@@]1(COc2nc(-c3cnn(C(C)(C)C)c3)cc3ncccc23)CNCCO1 [Compound 10.14, 7-(1-tert-butyl-1H-pyrazol-4-yl)-5-{[(2S)-2-ethylmorpholin-2-yl]methoxy}-1,6-naphthyridine] | 2.55 | 0.281 | – |
| CC[C@@]1(COc2nc(-c3cnn(C(C)C)c3)cc3ncccc23)CNCCO1 [Compound 10.16, 5-{[(2S)-2-ethylmorpholin-2-yl]methoxy}-7-[1-(propan-2-yl)-1H-pyrazol-4-yl]-1,6-naphthyridine] | 1.21 | 0.259 | – |
| C1=C(c2cc(OC[C@@H]3CNCCO3)c3cccnc3c2)CCC1 [Compound 11.1, 7-(cyclopent-1-en-1-yl)-5-{[(2S)-morpholin-2-yl]methoxy}quinoline] | > 10 | 1.36 | – |

Now from value to compound, other results behind:

| EC50 ([1]; Mus musculus, BaF3, 48 h) [µM] | EC50 (Ba/F3-Syk cells) [µM] | SMILES | EC50 [1] [µM] |
| --- | --- | --- | --- |
| 0.625 | 0.00632 | CC(C)n1ccc(-c2cc(O[C@H](C)[C@@H]3CNCC(C)(C)O3)c3nccnc3c2)c1 [Compound 8.11, 5-[(1R)-1-[(2S)-6,6-dimethylmorpholin-2-yl]ethoxy]-7-[1-(propan-2-yl)-1H-pyrrol-3-yl]quinoxaline] | – |
| 0.537 | 0.0078 | CCn1ccc(-c2cc(O[C@H](C)[C@@H]3CNCC(C)(C)O3)c3nccnc3c2)c1 [Compound 8.12, 5-[(1R)-1-[(2S)-6,6-dimethylmorpholin-2-yl]ethoxy]-7-(1-ethyl-1H-pyrrol-3-yl)quinoxaline] | – |
| 0.435 | 0.0083 | CCn1ccc(-c2cc(O[C@H](C)[C@@H]3CNCCO3)c3nccnc3c2)c1 [Compound 8.14, 7-(1-ethyl-1H-pyrrol-3-yl)-5-[(1R)-1-[(2S)-morpholin-2-yl]ethoxy]quinoxaline] | – |
| 0.358 | 0.0089 | C[C@@H](Oc1cc(-c2ccn(CC(F)F)c2)cc2nccnc12)[C@@H]1CNCCO1 [Compound 8.15, 7-[1-(2,2-difluoroethyl)-1H-pyrrol-3-yl]-5-[(1R)-1-[(2S)-morpholin-2-yl]ethoxy]quinoxaline] | – |
| 0.335 | 0.0084 | COCCn1ccc(-c2cc(OC[C@@H]3CNCC4(CCC4)O3)c3nccnc3c2)c1 [Compound 8.18, 7-[1-(2-methoxyethyl)-1H-pyrrol-3-yl]-5-{[(6S)-5-oxa-8-azaspiro[3.5]nonan-6-yl]methoxy}quinoxaline] | – |
| 0.655 | 0.0126 | CCn1ccc(-c2cc(OC[C@@H]3CNCCO3)c3nccnc3c2)c1 [Compound 8.22, 7-(1-ethyl-1H-pyrrol-3-yl)-5-{[(2S)-morpholin-2-yl]methoxy}quinoxaline] | – |
| 0.421 | 0.0027 | CC(C)n1ccc(-c2cc(OC[C@@H]3CNC[C@@H](C)O3)c3nccnc3c2)c1 [Compound 8.23, 5-{[(2S,6R)-6-methylmorpholin-2-yl]methoxy}-7-[1-(propan-2-yl)-1H-pyrrol-3-yl]quinoxaline] | – |
| 0.754 | 0.106 | CC(C)n1cc(-c2cc3ncccc3c(OC[C@]3(C)CNCCO3)n2)cn1 [Compound 10.6, 5-{[(2S)-2-methylmorpholin-2-yl]methoxy}-7-[1-(propan-2-yl)-1H-pyrazol-4-yl]-1,6-naphthyridine] | – |
